Data: patent US10093713B2, “GIP-GLP-1 dual agonist compounds and methods” (priority 2013, dated 2018)
Where two headings read alike, the source gives them in different places. *1 amine or outer side, *2 acyl side, *3 side chain or, on linkers, in order; H or OH if unused. Where a SMILES comes first, the peptide text is derived from it. Side-chain parts run from the residue outwards. [ ]: non-standard residue; d: D form. The star is where a group is joined. C20 diacid = O=C(O)CCCCCCCCCCCCCCCCCCC(=O)*; C18 diacid = O=C(O)CCCCCCCCCCCCCCCCC(=O)*; γGlu = O=C(O)[C@H](CCC(=O)[*:2])N[*:1]; AEEA = NCCOCCOCC(=O)O; Aib = CC(C)(N)C(=O)O

Columns and labels:
[1] = target: T1, human GLP-1 R (Homo sapiens, UniProt P43220); experiment: Human GLP-1 receptor (GLP-1 R) activity assay, cAMP induction (AlphaScreen) in HEK293 cells; assay type: cell-based
T1 construct: expressed in transfected cells
Summary of the method: (§1)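 Stable HEK293 clones expressing human GIP R or GLP-1 R, seeded 1 day before; cells washed in Tyrode's buffer (10 mM HEPES, pH 7.4), stimulated, then lysed. cAMP measured by AlphaScreen bead competition (1 h, room temperature, dark). EC50 = concentration giving half-maximal cAMP elevation, from curves of absolute cAMP (nM) vs log concentration.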

[2] = Pharmacokinetics of selected compounds in mice; assay type: in vivo, C57BL/6J mice; conditions: male, C57BL/6J, mouse, plasma; for bioavailability: subcutaneous, AUCinf (s.c.)/AUCinf (i.v.)x100, values marked * capped to 100%
Experimental: Pharmacokinetics of Selected Compounds in Mice
C57BL/6J mice (males with a body weight of approximately 25 g) were given either a single subcutaneous (s.c.) bolus or a single intravenous (i.v.) bolus of each peptide to be tested.
Following s.c. administration of the selected compounds (50, 100 or 200 nmol/kg), blood samples were drawn at 8 (eight) timepoints up to 72 hours post-dose. Following i.v. administration of the selected compounds (50, 100 or 200 nmol/kg), blood samples were drawn at 8 (eight) timepoints up to 48 hours post-dose. Blood samples were drawn by sublingual bleeding. The dosing vehicle was a phosphate buffer containing mannitol (pH 7.5).
At each sampling time point, samples from two mice were drawn, i.e. 16 mice were included for each compound and each administration route. The mice were euthanized immediately after blood sampling by cervical dislocation. Plasma samples were analyzed after solid phase extraction (SPE) or protein precipitation followed by liquid chromatography mass spectrometry (LC-MS/MS). Mean plasma concentrations were used for calculation of the pharmacokinetic parameters using the non-compartmental approach in Phoenix WinNonlin 6.3. Plasma terminal elimination half-life (T½) was determined as […] where λz is the magnitude of the slope of the log linear regression of the log concentration versus time profile during the terminal phase. Bioavailability was determined as AUCinf (s.c.)/AUCinf (i.v.)×100, where AUCinf is the area under the plasma concentration−time curve extrapolated to infinity (AUCinf=AUClast+Clast/λz, where Clast is the last observed plasma concentration). Tmax is the post-dose time where the maximal plasma concentration was observed.

[3] = target: T2, human GIP R (Homo sapiens, UniProt P48546); experiment: Human GIP receptor (GIP R) activity assay, cAMP induction (AlphaScreen) in HEK293 cells; assay type: cell-based; conditions: read-out: hGIP-R cAMP EC50 average value
T2 construct: expressed in transfected cells
T2 sequence (P48546 22-466): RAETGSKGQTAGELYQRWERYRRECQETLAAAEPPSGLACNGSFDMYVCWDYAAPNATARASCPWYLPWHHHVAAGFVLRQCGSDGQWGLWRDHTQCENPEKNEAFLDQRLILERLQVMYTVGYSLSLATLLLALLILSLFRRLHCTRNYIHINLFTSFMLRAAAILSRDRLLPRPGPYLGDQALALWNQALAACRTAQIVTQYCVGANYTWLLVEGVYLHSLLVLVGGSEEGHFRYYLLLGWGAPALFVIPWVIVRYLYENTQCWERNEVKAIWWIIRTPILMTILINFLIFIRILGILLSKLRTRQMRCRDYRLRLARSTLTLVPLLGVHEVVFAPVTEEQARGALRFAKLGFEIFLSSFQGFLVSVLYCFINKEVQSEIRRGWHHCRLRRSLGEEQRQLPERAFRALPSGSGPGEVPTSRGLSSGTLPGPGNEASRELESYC
Summary of the method: as §1

[4] = Table 2, HEK293 cells expressing human GLP-1 R, read-out: hGLP1-R cAMP EC50 average value
[5] = Table 2a, secondary assay study, read-out: hGLP1-R cAMP EC50 average value
[6] = iv, single i.v. bolus, read-out: T½ terminal elimination half-life, i.v. (converted)
[7] = Table 2, HEK293 cells expressing human GIP R
[8] = Table 2a, secondary assay study
[9] = Table 3, most comprehensive data
[10] = Table 3, most comprehensive data, read-out: hGLP-1-R cAMP EC50 average value

T1 sequence (P43220 24-463): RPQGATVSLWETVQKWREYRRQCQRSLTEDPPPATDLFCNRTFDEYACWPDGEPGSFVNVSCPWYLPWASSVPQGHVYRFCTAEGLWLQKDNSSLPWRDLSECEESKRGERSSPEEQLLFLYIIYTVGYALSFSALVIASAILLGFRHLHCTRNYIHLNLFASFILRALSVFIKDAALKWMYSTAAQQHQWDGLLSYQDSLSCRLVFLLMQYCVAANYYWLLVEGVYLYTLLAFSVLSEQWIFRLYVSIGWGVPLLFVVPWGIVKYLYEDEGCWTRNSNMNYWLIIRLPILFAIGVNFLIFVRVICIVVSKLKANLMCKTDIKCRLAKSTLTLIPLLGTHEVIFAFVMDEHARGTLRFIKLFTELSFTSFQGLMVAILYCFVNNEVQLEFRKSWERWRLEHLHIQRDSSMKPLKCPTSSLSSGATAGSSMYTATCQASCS

With `CC[C@H](C)[C@H](NC(=O)[C@H](CO)NC(=O)[C@H](Cc1ccc(O)cc1)NC(=O)[C@H](CC(=O)O)NC(=O)[C@H](CO)NC(=O)[C@@H](NC(=O)[C@H](Cc1ccccc1)NC(=O)[C@@H](NC(=O)CNC(=O)[C@H](CCC(=O)O)NC(=O)C(C)(C)NC(=O)[C@@H](N)Cc1ccc(O)cc1)[C@@H](C)O)[C@@H](C)O)C(=O)N[C@@H](Cc1ccc(O)cc1)C(=O)N[C@@H](CC(C)C)C(=O)N[C@@H](CC(=O)O)C(=O)N[C@@H](CCCCN)C(=O)N[C@@H](CCCCNC(=O)CC[C@H](NC(=O)CCCCCCCCCCCCCCCCC(=O)O)C(=O)O)C(=O)N[C@@H](C)C(=O)N[C@@H](CCC(N)=O)C(=O)N[C@@H](CCCNC(=N)N)C(=O)N[C@@H](C)C(=O)N[C@@H](Cc1ccccc1)C(=O)N[C@H](C(=O)N[C@@H](CCC(=O)O)C(=O)N[C@@H](Cc1c[nH]c2ccccc12)C(=O)N[C@@H](CC(C)C)C(=O)N[C@@H](CC(C)C)C(=O)N[C@@H](C)C(=O)N[C@@H](CCC(N)=O)C(=O)NCC(=O)N1CCC[C@H]1C(=O)N[C@@H](CO)C(=O)N[C@@H](CO)C(=O)NCC(=O)N[C@@H](C)C(=O)N1CCC[C@H]1C(=O)N1CCC[C@H]1C(=O)N1CCC[C@H]1C(=O)N[C@@H](CO)C(N)=O)C(C)C` [Compound 3] (H-Y[Aib]EGTFTSDYSIYLDKK([γGlu-C18 diacid])AQRAFVEWLLAQGPSSGAPPPS-NH2) as the compound, how does the EC50 [1, 4] read?
The EC50 was 11 pM.

What about the EC50 [1, 5] of the same compound?
Its EC50 is 11 pM.

And the half-life [2, 6]?
Its half-life is 9.1 h.

What about the bioavailability [2] of the same compound?
The bioavailability was 89%.

And the Tmax ([2]; sc, single s.c. bolus)?
The Tmax was 8 h.

What about the EC50 [3, 7] of the same compound?
The EC50 was 8.6 pM.

What about the EC50 [3, 8] of the same compound?
The EC50 was 9 pM.

What about the EC50 [3, 9] of the same compound?
The EC50 was 9 pM.

Which EC50 [1, 4] does the source give for `CC[C@H](C)[C@H](NC(=O)[C@H](CO)NC(=O)[C@H](Cc1ccc(O)cc1)NC(=O)[C@H](CC(=O)O)NC(=O)[C@H](CO)NC(=O)[C@@H](NC(=O)[C@H](Cc1ccccc1)NC(=O)[C@@H](NC(=O)CNC(=O)[C@H](CCC(=O)O)NC(=O)C(C)(C)NC(=O)[C@@H](N)Cc1ccc(O)cc1)[C@@H](C)O)[C@@H](C)O)C(=O)N[C@@H](C)C(=O)N[C@@H](CC(C)C)C(=O)N[C@@H](CC(=O)O)C(=O)N[C@@H](CCCCN)C(=O)N[C@@H](CCCCNC(=O)COCCOCCNC(=O)COCCOCCNC(=O)CC[C@H](NC(=O)CCCCCCCCCCCCCCCCCCC(=O)O)C(=O)O)C(=O)N[C@@H](C)C(=O)N[C@@H](CCC(N)=O)C(=O)N[C@@H](CCCNC(=N)N)C(=O)N[C@@H](C)C(=O)N[C@@H](Cc1ccccc1)C(=O)N[C@H](C(=O)N[C@@H](CC(N)=O)C(=O)N[C@@H](Cc1c[nH]c2ccccc12)C(=O)N[C@@H](CC(C)C)C(=O)N[C@H](C(=O)N[C@@H](C)C(=O)NC(C)(C)C(=O)N[C@@H](CCCCN)C(=O)N1CCC[C@H]1C(=O)N[C@@H](CO)C(=O)N[C@@H](CO)C(=O)NCC(=O)N[C@@H](C)C(=O)N1CCC[C@H]1C(=O)N1CCC[C@H]1C(=O)N1CCC[C@H]1C(=O)N[C@@H](CO)C(N)=O)C(C)C)C(C)C` [Compound 15] here?
Its EC50 is 8.8 pM.

What about the EC50 [1, 10] of the same compound?
The EC50 was 9 pM.

What about the half-life [2, 6] of the same compound?
Its half-life is 17.3 h.

What about the bioavailability [2] of the same compound?
The bioavailability was 95%.

What about the Tmax ([2]; sc, single s.c. bolus) of the same compound?
Its Tmax is 8 h.

And the EC50 [3, 7]?
The EC50 was 8 pM.

And the EC50 [3, 9]?
Its EC50 is 8 pM.

For `CC[C@H](C)[C@H](NC(=O)[C@H](CO)NC(=O)[C@H](Cc1ccc(O)cc1)NC(=O)[C@H](CC(=O)O)NC(=O)[C@H](CO)NC(=O)[C@@H](NC(=O)[C@H](Cc1ccccc1)NC(=O)[C@@H](NC(=O)CNC(=O)[C@H](CCC(=O)O)NC(=O)C(C)(C)NC(=O)[C@@H](N)Cc1ccc(O)cc1)[C@@H](C)O)[C@@H](C)O)C(=O)N[C@@H](Cc1ccc(O)cc1)C(=O)N[C@@H](CC(C)C)C(=O)N[C@@H](CC(=O)O)C(=O)N[C@@H](CCCCN)C(=O)N[C@@H](CCCCNC(=O)COCCOCCNC(=O)COCCOCCNC(=O)COCCOCCNC(=O)CC[C@H](NC(=O)CCCCCCCCCCCCCCCCCCC(=O)O)C(=O)O)C(=O)N[C@@H](C)C(=O)N[C@@H](CCC(N)=O)C(=O)N[C@@H](CCCNC(=N)N)C(=O)N[C@@H](C)C(=O)N[C@@H](Cc1ccccc1)C(=O)N[C@H](C(=O)N[C@@H](CCC(=O)O)C(=O)N[C@@H](Cc1c[nH]c2ccccc12)C(=O)N[C@@H](CC(C)C)C(=O)N[C@@H](CC(C)C)C(=O)N[C@@H](C)C(=O)N[C@@H](CCC(N)=O)C(=O)NCC(=O)N1CCC[C@H]1C(=O)N[C@@H](CO)C(=O)N[C@@H](CO)C(=O)NCC(=O)N[C@@H](C)C(=O)N1CCC[C@H]1C(=O)N1CCC[C@H]1C(=O)N1CCC[C@H]1C(=O)N[C@@H](CO)C(N)=O)C(C)C` [Compound 8] (H-Y[Aib]EGTFTSDYSIYLDKK([AEEA-AEEA-AEEA-γGlu-C20 diacid])AQRAFVEWLLAQGPSSGAPPPS-NH2), which EC50 [1, 4] is on record?
Its EC50 is 12 pM.

And the EC50 [1, 5]?
Its EC50 is 12 pM.

What about the half-life [2, 6] of the same compound?
Its half-life is 17.2 h.

And the bioavailability [2]?
Its bioavailability is 54%.

What about the Tmax ([2]; sc, single s.c. bolus) of the same compound?
The Tmax was 8 h.

And the EC50 [3, 7]?
Its EC50 is 5.3 pM.

And the EC50 [3, 8]?
The EC50 was 5 pM.

And the EC50 [3, 9]?
Its EC50 is 5 pM.

For `CC[C@H](C)[C@H](NC(=O)[C@H](CO)NC(=O)[C@H](Cc1ccc(O)cc1)NC(=O)[C@H](CC(=O)O)NC(=O)[C@H](CO)NC(=O)[C@@H](NC(=O)[C@H](Cc1ccccc1)NC(=O)[C@@H](NC(=O)CNC(=O)[C@H](CCC(=O)O)NC(=O)[C@@H](C)NC(=O)[C@@H](N)Cc1ccc(O)cc1)[C@@H](C)O)[C@@H](C)O)C(=O)N[C@@H](Cc1ccc(O)cc1)C(=O)N[C@@H](CC(C)C)C(=O)N[C@@H](CC(=O)O)C(=O)N[C@@H](CCCCN)C(=O)N[C@@H](CCCCNC(=O)COCCOCCNC(=O)COCCOCCNC(=O)CC[C@H](NC(=O)CCCCCCCCCCCCCCCCCCC(=O)O)C(=O)O)C(=O)N[C@@H](C)C(=O)N[C@@H](CCC(N)=O)C(=O)N[C@@H](CCCNC(=N)N)C(=O)N[C@@H](C)C(=O)N[C@@H](Cc1ccccc1)C(=O)N[C@H](C(=O)N[C@@H](CCC(=O)O)C(=O)N[C@@H](Cc1c[nH]c2ccccc12)C(=O)N[C@@H](CC(C)C)C(=O)N[C@@H](CC(C)C)C(=O)N[C@@H](C)C(=O)N[C@@H](CCC(N)=O)C(=O)NCC(=O)N1CCC[C@H]1C(=O)N[C@@H](CO)C(=O)N[C@@H](CO)C(=O)NCC(=O)N[C@@H](C)C(=O)N1CCC[C@H]1C(=O)N1CCC[C@H]1C(=O)N1CCC[C@H]1C(=O)N[C@@H](CO)C(N)=O)C(C)C` [Compound 30] (H-Y[dA]EGTFTSDYSIYLDKK([AEEA-AEEA-γGlu-C20 diacid])AQRAFVEWLLAQGPSSGAPPPS-NH2), which EC50 [1, 4] is on record?
Its EC50 is 28 pM.

What about the EC50 [1, 10] of the same compound?
Its EC50 is 35 pM.

And the half-life [2, 6]?
The half-life was 17.1 h.

And the bioavailability [2]?
Its bioavailability is 83%.

What about the Tmax ([2]; sc, single s.c. bolus) of the same compound?
Its Tmax is 8 h.

What about the half-life ([2]; sc, single s.c. bolus, read-out: T½ terminal elimination half-life, s.c. (converted)) of the same compound?
Its half-life is 15.9 h.

What about the EC50 [3, 7] of the same compound?
The EC50 was 15 pM.

And the EC50 [3, 9]?
The EC50 was 17 pM.
